Where two headings read alike, the source gives them in different places.
Legend:
human T1R2+T1R3 receptor = target: T1, human T1R2+T1R3 receptor (Homo sapiens, UniProt Q7RTX0); assay: Heterologous calcium mobilization assay, HEK293 cells expressing human sweet receptor; type: cell-based; conditions: for inhibition of the human sweet receptor: at up to 500 μM
T1 construct: expressed in transfected cells; host or cells: HEK293E
T1 sequence (Q7RTX0 21-852): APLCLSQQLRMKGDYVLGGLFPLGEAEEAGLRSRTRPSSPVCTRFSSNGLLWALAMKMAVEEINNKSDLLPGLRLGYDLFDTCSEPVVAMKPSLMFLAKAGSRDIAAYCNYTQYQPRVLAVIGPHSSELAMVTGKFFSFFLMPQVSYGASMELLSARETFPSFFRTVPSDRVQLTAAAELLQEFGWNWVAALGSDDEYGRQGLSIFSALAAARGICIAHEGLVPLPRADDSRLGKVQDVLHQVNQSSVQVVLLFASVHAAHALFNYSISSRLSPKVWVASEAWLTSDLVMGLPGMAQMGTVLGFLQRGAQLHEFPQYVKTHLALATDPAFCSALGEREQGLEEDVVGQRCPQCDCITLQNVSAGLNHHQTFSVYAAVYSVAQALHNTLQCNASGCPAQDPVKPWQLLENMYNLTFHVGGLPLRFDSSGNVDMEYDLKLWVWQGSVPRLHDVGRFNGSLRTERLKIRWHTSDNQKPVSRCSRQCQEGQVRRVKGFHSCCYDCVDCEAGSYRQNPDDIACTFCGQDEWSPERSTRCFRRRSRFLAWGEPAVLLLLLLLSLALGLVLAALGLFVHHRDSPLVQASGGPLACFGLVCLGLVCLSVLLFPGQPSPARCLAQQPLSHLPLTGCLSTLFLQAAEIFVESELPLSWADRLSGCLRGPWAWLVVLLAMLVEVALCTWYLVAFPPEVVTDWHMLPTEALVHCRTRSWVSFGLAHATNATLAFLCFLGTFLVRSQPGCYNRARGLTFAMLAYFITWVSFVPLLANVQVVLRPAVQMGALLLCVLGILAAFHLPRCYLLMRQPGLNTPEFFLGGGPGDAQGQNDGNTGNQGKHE
T1 sequence (Q8TE23 20-839 partner): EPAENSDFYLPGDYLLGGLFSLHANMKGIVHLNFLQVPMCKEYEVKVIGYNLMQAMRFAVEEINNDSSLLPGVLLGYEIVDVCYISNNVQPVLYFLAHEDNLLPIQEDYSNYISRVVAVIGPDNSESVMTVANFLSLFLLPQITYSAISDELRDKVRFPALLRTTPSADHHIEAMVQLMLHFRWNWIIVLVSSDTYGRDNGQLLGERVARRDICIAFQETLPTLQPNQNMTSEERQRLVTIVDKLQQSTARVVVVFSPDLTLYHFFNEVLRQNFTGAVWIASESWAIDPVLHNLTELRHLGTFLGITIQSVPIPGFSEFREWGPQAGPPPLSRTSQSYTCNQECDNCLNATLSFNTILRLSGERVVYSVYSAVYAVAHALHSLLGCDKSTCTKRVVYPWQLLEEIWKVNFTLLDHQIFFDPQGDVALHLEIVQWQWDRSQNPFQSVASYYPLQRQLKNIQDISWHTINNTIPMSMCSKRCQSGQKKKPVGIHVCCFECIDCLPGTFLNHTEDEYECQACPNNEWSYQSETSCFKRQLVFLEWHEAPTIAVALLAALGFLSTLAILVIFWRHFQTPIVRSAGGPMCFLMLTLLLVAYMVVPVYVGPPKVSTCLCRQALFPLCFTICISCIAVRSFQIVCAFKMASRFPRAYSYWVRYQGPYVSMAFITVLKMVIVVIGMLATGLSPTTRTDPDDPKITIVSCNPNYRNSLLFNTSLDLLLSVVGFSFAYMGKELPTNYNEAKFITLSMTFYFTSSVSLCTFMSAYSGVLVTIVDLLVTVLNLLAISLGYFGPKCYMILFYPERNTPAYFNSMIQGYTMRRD
Method: T1R2+T1R3 subunits were transfected into HEK cells along with the promiscuous Gq-type protein G16-gust44. Activation of receptors by agonists was followed using the calcium-sensitive fluorescent dye fluo-4-AM in a 96-well format with the fluorescent microplate reader Flexstation II (Molecular Devices). Inhibitors were added concomitantly with the sweetener sucralose at 2.5 mM (saturating concentration). […] Fluorescence signal (F) is expressed in arbitrary units (AU). The down arrow indicates the injection of the sweetener-inhibitors mixture on the cells. […] Peak calcium signal is expressed as ΔF/F in %, normalized to control (sucralose alone). Data are from a representative experiment, means±SD, done in quadruplicate.
HEK293E cells were cultured at 37° C. in Optimem GlutaMAX culture medium (Invitrogen) supplemented with 4% dialyzed fetal bovine serum. Cells were transfected with the DNA constructs using lipofectamine-2000 according to the manufacturer's protocol (Invitrogen). Briefly, cells were seeded onto 96-well poly-D-lysine plates (Corning) at about 12,500 cells/well 18 hours prior to transfection; and co-transfected with plasmid DNAs encoding […] and G 16-gust44 (0.1 μg total DNA/well; 0.2 μl lipofectamine/well). After 24 hours, the transfected cells were washed once with the culture medium and incubated for another 24 hours. The cells were washed with HBSS supplemented with 20 mM Hepes (HBSS-H), loaded with 3 μM Fluo-4AM (Molecular Probe) in HBSS-H buffer, incubated for 1.5 hours at room temperature, and then washed with HBSS-H and maintained in HBSS-H at 25° C. […] Sweeteners were added 30 seconds after the start of the scan at 2× concentration in 50 μl of HBSS-H while monitoring fluorescence for an additional 200 seconds at 2 seconds intervals. Where tested, inhibitors were added along with sweeteners to the cells.
The data were expressed as the mean±S.E. of quadruplicate or sextuplicate of the F/F values, or were normalized as described. The bar graph and curving-fitting routines were carried out using Graph-Pad Prism 3.0 (GraphPad Software, Inc.).
To determine if phenoxy-herbicides and fibrates had inhibitory properties, a cell-based assay with HEK 293 cells expressing the human sweet receptor composed of hT1R3 and hT1R2 was used.
IC50s are means±SD from at least 3 independent experiments.

[1] = system: sweet and umami (MSG) taste; assay: Psychophysical self-experimentation on taste; type: in vivo, human; conditions: self-experimentation by one of the inventors
Text: T1R3's role as a critical component of sweet and umami receptors in taste cells is well established (Zhao, supra; and Max, supra). T1R3, like gustducin, has also been implicated in glucose-sensing functions of gut endocrine cells and thereby in glucose homeostasis (Jang, supra).

[2] = HEK 293 cells, hT1R2+hT1R3, 2.5 mM sucralose, read-out: IC50, inhibition of human sweet receptor
[3] = hT1R2+hT1R3 activated by 2.5 mM sucralose, mean (SD), at least 3 independent experiments, read-out: IC50 (μM (SD))

For `CC(Oc1cc(Cl)c(Cl)cc1Cl)C(=O)O` (centres unmarked) [2,4,5TPP, 2-(2,4,5-trichlorophenoxy) propanoic acid], the IC50 (human T1R2+T1R3 receptor) was 5 to 12 µM.
With `O=C(O)COc1ccc(Cl)cc1` [4-CPA, (4-chlorophenoxy)acetic acid] the IC50 (human T1R2+T1R3 receptor) was at least 142 µM.
In the case of `CC(C)(Oc1ccc(Cl)cc1)C(=O)O` [Clofibric acid, 2-(4-chlorophenoxy)-2-methylpropanoic acid], the “inhibition of sweet taste in vivo” value [1] is reported as “potently inhibited” and the “inhibition of umami (MSG) taste in vivo” value [1] is reported as “potently inhibited”.
`Cc1ccc(C)c(OCCCC(C)(C)C(=O)O)c1` [Gemfibrozil, 5-(2,5-dimethylphenoxy)-2,2-dimethylpentanoic acid, reference compound] was tested, and the IC50 (human T1R2+T1R3 receptor; [2]) was 30 to 100 µM.
For `CC(C)(Oc1ccc(CCNC(=O)c2ccc(Cl)cc2)cc1)C(=O)O` [Bezafibric acid, 2-[4-(2-{[(4-chlorophenyl)carbonyl]amino}ethyl)phenoxy]-2-methylpropanoic acid, reference compound], the IC50 (human T1R2+T1R3 receptor; [2]) was 30 to 100 µM.
For `O=C(O)CCc1c[nH]c2ccccc12` [IPA, 3-(1H-indol-3-yl)propanoic acid], the “inhibition of the human sweet receptor” value (human T1R2+T1R3 receptor) was “did not inhibit” and the IC50 (human T1R2+T1R3 receptor; [3]) was over 1000 µM.
In the case of `O=C(O)Cc1c[nH]c2ccccc12` [IAA, 1H-indol-3-ylacetic acid], the “inhibition of the human sweet receptor” value (human T1R2+T1R3 receptor) is reported as “did not inhibit” and the IC50 (human T1R2+T1R3 receptor; [3]) is reported as over 1000 µM.
Compound `O=C(O)Cc1ccccc1` [PAA, phenylacetic acid] has an IC50 (human T1R2+T1R3 receptor) of at least 142 µM.
For `O=C(O)CCCc1c[nH]c2ccccc12` [IBA, 4-(1H-indol-3-yl)butanoic acid], the “inhibition of the human sweet receptor” value (human T1R2+T1R3 receptor) was “did not inhibit”.
Compound `Cc1cc(Cl)ccc1OC(C)C(=O)O` (centres unmarked) [MCPP, 2-(4-chloro-2-methylphenoxy) propanoic acid] has an IC50 (human T1R2+T1R3 receptor) of 5 to 12 µM.
For `O=C(O)Cc1cccc2ccccc12` [NAA, naphthalen-1-ylacetic acid], the IC50 (human T1R2+T1R3 receptor; [2]) was at least 142 µM.

From patent publication US20120245213A1, “HUMAN TYPE I TASTE RECEPTOR SUBUNIT 3 MODULATORS AND METHODS OF USING SAME” (priority 2009, published 2012)
